Ends that are not written are not given here.
What was measured:
[1] = heme binding; cited from earlier work
[2] = molecular target: T1, human FLVCR (Homo sapiens, UniProt Q9Y5Y0); assay: ZnMP export from NRK cells engineered to express human FLVCR, with carrier protein; type: cell-based; conditions: NRK cells expressing human FLVCR; 37° C. for 90 min
T1 construct: expressed in transfected cells; host or cells: NRK (rat kidney) cells engineered to express human FLVCR
T1 sequence (Q9Y5Y0 1-555): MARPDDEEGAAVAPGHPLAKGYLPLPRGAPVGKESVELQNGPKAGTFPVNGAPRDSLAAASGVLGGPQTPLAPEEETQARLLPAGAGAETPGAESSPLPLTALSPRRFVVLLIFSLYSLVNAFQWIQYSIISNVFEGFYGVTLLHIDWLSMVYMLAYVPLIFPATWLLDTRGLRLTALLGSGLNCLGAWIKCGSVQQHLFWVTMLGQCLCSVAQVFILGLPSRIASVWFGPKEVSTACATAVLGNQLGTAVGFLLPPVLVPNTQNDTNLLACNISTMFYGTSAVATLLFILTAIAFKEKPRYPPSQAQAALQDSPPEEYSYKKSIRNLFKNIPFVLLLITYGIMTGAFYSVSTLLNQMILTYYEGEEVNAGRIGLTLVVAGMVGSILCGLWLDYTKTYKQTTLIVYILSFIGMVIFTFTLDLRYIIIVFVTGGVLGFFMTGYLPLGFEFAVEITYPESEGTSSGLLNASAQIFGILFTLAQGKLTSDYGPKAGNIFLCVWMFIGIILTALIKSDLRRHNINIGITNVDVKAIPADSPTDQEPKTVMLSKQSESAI
Description: ZnMP and ^55Fe-hemin uptake and washout studies.
To gain insights into the structure and function of FLVCR, we first studied the export of zinc mesoporphyrin (ZnMP), a fluorescent heme analog that traffics similarly to heme and also blocks heme oxygenase activity.

[3] = tested on: bone marrow-derived macrophages; assay: Ferritin studies in macrophages (ELISA) with or without hepcidin; type: cell-based, mouse; conditions: control and Flvcr-deleted macrophages exposed to FAC (10 μM Fe) 24 hours, washed, then 24 hours with hepcidin (1 ug/ul)
Description: FIGS. 4A-4B. FLVCR exports heme-iron from macrophages. (4A) Bone marrow-derived macrophages from control (striped) and mice in which Flvcr was deleted neonatally (black) were incubated in the absence or presence of FAC (10 μM Fe) for 24 or 48 hours, then washed; ferritin was measured by enzyme-linked immunosorbent (ELISA) (i). Cells were incubated with FAC for 24 hours (ii) or with IgG-coated red blood cells (RBC) for 90 min (iii), washed, then incubated for an additional 24 hours with or without hepcidin (1 ug/ul) and ferritin assayed. Data represent ferritin values in macrophages derived from two control and two deleted mice±SEM of triplicate samples per mouse. (4B) Model of macrophage heme-iron recycling.
Murine macrophage culture. Single-cell suspensions of mouse bone marrow were collected from mice 5 days after completing poly(I)-poly(C) treatment. […] Macrophages were defined by flow cytometry (Mac-1^+, f4/80^+, GR-1^−) and analyzed for ZnMP and ^55Fe-hemin export 10-24 days post in vivo deletion (after 5-19 days in culture).
Ferritin studies in macrophages. […] After 24 hrs, the samples were collected in lysis buffer (150 mM NaCl, 10 mM EDTA, 1% Triton X-100, 10 mM Tris pH 7.4), and complete protease inhibitor (Roche Diagnostics Co., Indianapolis, Ind.) and analyzed for ferritin levels as described (S16).

Substance | Kd [1] [pM] | efficacy in inducing ZnMP export, relative to albumin [2] [fold] | ferritin [3]
hemopexin [Hpx] | < 1 | 100 | –
hepcidin (DTHFPICIFCCGCCHRSKCGMCCKT; ends and bridges not checked; cysteine pairing not given here; UniProt P81172 60-84, looked up) | – | – | increase equivalently
